Legend:
[1] = target: Dual specificity tyrosine-phosphorylation-regulated kinase 1A (Homo sapiens, UniProt Q13627); test: Inhibition of human recombinant GST-fusion DYRK1A expressed in Escherichia coli
[2] = target: Glycogen synthase kinase-3 (Sus scrofa, UniProt B2LUN4+I6LNT8); test: Inhibition of pig GSK3alpha/beta
[3] = target: Cyclin-dependent kinase 5/CDK5 activator 1 (Homo sapiens, UniProt Q00535); test: Inhibition of human recombinant CDK5/P25 by scintillation counting; assay type: protein-complex assay
Sequence of Cyclin-dependent kinase 5/CDK5 activator 1 (Q00535 whole entry): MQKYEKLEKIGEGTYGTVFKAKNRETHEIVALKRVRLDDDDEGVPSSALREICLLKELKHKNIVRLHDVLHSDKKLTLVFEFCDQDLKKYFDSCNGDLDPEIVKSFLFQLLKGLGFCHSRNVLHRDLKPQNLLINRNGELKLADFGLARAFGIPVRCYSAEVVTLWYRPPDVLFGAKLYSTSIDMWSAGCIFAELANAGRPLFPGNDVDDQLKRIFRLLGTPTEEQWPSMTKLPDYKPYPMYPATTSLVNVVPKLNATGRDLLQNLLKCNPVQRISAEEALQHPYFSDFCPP
Sequence of Cyclin-dependent kinase 5/CDK5 activator 1 (Q15078 whole entry, further chain): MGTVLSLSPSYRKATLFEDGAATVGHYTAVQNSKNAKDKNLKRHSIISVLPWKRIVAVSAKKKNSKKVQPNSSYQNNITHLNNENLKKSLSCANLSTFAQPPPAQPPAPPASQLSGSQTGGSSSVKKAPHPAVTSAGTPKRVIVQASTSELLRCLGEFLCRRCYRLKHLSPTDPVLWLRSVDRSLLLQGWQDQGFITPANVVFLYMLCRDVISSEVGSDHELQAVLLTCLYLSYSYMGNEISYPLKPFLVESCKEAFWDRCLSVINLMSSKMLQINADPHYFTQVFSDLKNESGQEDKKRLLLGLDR

SMILES | IC50 [1] [µM] | IC50 [2] [µM] | IC50 [3] [µM]
N#Cc1c(Cl)nc2[nH]nc(N)c2c1-c1ccccc1 | > 10 | > 10 | > 10
CC(=O)n1nc(N)c2c(-c3ccccc3)c(C#N)c(N)nc21 | > 10 | > 10 | > 10
CC(=O)Nc1nc2nn(-c3ccccc3)c(NC(C)=O)c2cc1C#N | > 10 | > 10 | > 10
N#Cc1cc2c(N)n(-c3ccccc3)nc2nc1N | > 10 | > 10 | > 10
CC(=O)Nc1nn(C)c2nc(N)c(C#N)cc12 | > 10 | > 10 | > 10
N#Cc1c(N)nc2[nH]nc(N)c2c1-c1ccccc1 | 11 | 1.5 | 0.41
CC(=O)Nc1nn(C)c2nc(N)c(C#N)c(-c3ccccc3)c12 | > 10 | > 10 | > 10
Cn1nc(N)c2cc(C#N)c(N)nc21 | > 10 | > 10 | > 10
Cn1nc(N)c2c(-c3ccccc3)c(C#N)c(N)nc21 | > 10 | > 10 | > 10
N#Cc1cc2c(N)n[nH]c2nc1N | > 10 | > 10 | > 10
CC(=O)Nc1nc2[nH]nc(NC(C)=O)c2cc1C#N | > 10 | > 10 | > 10
N#Cc1c(N2CCOCC2)nc2[nH]nc(N)c2c1-c1ccccc1 | > 10 | > 10 | > 10
COc1nc(NNC(C)=O)c(C#N)c(-c2ccccc2)c1C#N | > 10 | > 10 | > 10
COc1nc(NN)c(C#N)c(-c2ccccc2)c1C#N | > 10 | > 10 | > 10
